Reference: the COVID Moonshot data (paper PMC7615835)
Several values for one entry are separate records, joined by “and”; a condition that tells them apart may be missing. Identical values can stand only once.

biological target: SARS-CoV-2 Main Protease (SARS-CoV-2) (UniProt P0DTD1)

`O=C(NCCc1cccc(F)c1)C(c1cccnc1)N(C(=O)c1cnc[nH]1)C1CCCC2(CCC2)C1` (configuration not stated) and `COc1ccccc1CN(C(=O)c1cnc[nH]1)C(C(=O)NCCc1cccc(F)c1)c1cccnc1` (configuration not stated) cannot be ordered by IC50: over 99 µM for the first, over 99 µM for the second.

Going from `CS(=O)(=O)c1ccc(N2CCNCC2)cc1` to `O=C(CCl)N1CCN(S(=O)(=O)c2ccsc2)CC1`, the IC50 falls from over 99.5 µM to 1.63 µM.

Going from `O=C(Cc1cc(Cl)cc(N2CCn3c(nnc3C(F)(F)F)C2)c1)Nc1cncc2ccccc12` to `O=C(Cc1cc(Cl)cc(Nc2ccc(C(F)(F)F)cn2)c1)Nc1cncc2ccccc12`, the IC50 rises from 2.01 µM to 3.96 µM (2-fold). The first is the more potent here.

`Cc1ccc(C(=O)Nc2c(-c3cnn(C)c3)nc3ccccn23)cn1` and `CC(NCc1cnc2ccccn12)c1nnc2ccccn12` (configuration not stated) cannot be ordered by IC50: over 99.5 µM for the first, over 99.5 µM for the second.

`O=C(Cc1cc(Cl)cc(Nc2ccc(Cl)c(Cl)c2)c1)Nc1cncc2ccccc12` and `N#Cc1ccc(Nc2cc(Cl)cc(CC(=O)Nc3cncc4ccccc34)c2)cc1Br` are within 1.5-fold of each other in IC50: 2.28 µM for the first, 2.16 µM for the second.

First: Nc1nn(C(=O)Cc2cccc(Cl)c2)c2cccnc12
Second: O=C(Cc1cccc(Cl)c1)Nn1cnc2ccccc2c1=O
The IC50 of the first is higher: over 99.5 µM for the first, 8.65 µM for the second.

`O=C(Cc1cc(Cl)cc(Nc2ccc3cc(Br)ccc3c2)c1)Nc1cncc2ccccc12` and `Cc1cc(Br)cc(Nc2cc(Cl)cc(CC(=O)Nc3cncc4ccccc34)c2)c1` are within 1.5-fold of each other in IC50: 2.1 µM for the first, 1.96 µM for the second.

First: Cc1ncc(CO)c(CNc2cc(Cl)cc(CC(=O)Nc3cncc4ccccc34)c2)c1O
Second: O=C(Cc1cc(Cl)cc(Nc2ncc(Br)cc2O)c1)Nc1cncc2ccccc12
The IC50 of the first is 2.8-fold higher: 9.11 µM for the first, 3.23 µM for the second. The second is the more potent here.

Going from `O=C(CN1CC(C(=O)Nc2cncc3cc(F)ccc23)c2cc(Cl)ccc2C1=O)NC1CC1` (configuration not stated) to `O=C(Nc1cncc2cc(F)ccc12)[C@H]1CCS(=O)(=O)c2ccc(Cl)cc21` (stereo in doubt), the IC50 rises from 0.556 µM to 24.5 µM (44-fold).

`O=C(Cc1cc(Cl)cc(Nc2c(F)cc(F)cc2Cl)c1)Nc1cncc2ccccc12` and `Cc1cc(Br)cc(C)c1Nc1cc(Cl)cc(CC(=O)Nc2cncc3ccccc23)c1` are within 1.5-fold of each other in IC50: 2.06 µM for the first, 1.71 µM for the second.

Going from `CC(C)(C)c1ccc(N(C(=O)c2cocn2)C(C(=O)NCC2CCOC2)c2cccnc2)cc1` (configuration not stated) to `CC(C)(C)c1ccc(N(C(=O)c2cccc(C#N)c2)C(C(=O)NCCc2cccc(F)c2)c2cccnc2)cc1` (configuration not stated), the IC50 rises from 5.42 µM to over 99.5 µM. The first is the more potent here.

Compared with `O=[N+]([O-])c1cnc(Sc2nnc(-c3ccco3)n2-c2ccc(OCc3ccccc3)cc2)s1`, `Cc1ccc(NC2=C(c3ccccc3)C(=O)N(Cc3cccnc3)C2=O)cc1Cl` is higher in IC50: 7.3 µM for the first, over 99.5 µM for the second.

First: N#CCC1(CS(=O)(=O)N2Cc3ccc(Cl)cc3C(C(=O)Nc3cncc4ccccc34)C2)CC1 (configuration not stated)
Second: N#CC1(CS(=O)(=O)N2Cc3ccc(Cl)cc3C(C(=O)Nc3cncc4cc(F)ccc34)C2)CC1 (configuration not stated)
The IC50 of the first is 1.7-fold lower: 0.128 µM for the first, 0.222 µM for the second. The first is the more potent here.

`O=C(Cc1cc(Cl)cc(Nc2cccc(OC(F)(F)F)c2)c1)Nc1cncc2ccccc12` and `O=C(Cc1cc(Cl)cc(Nc2cccc(C(F)(F)F)c2F)c1)Nc1cncc2ccccc12` are within 1.5-fold of each other in IC50: 1.93 µM for the first, 1.84 µM for the second.

Going from `NC1CCc2c(NC(=O)C3CCOc4ccc(Cl)cc43)cncc21` (configuration not stated) to `O=C(Nc1cncc2ccncc12)[C@H]1CCOc2cc(F)c(Cl)cc21` (stereo in doubt), the IC50 rises from 25.8 µM to over 99.5 µM. The first is the more potent here.

Going from `CSc1ccc(CN(C(=O)c2ccco2)C(C(=O)NCCc2cccc(F)c2)c2cccnc2)cc1C#N` (configuration not stated) to `C=CC(=O)Nc1cc(C(=O)NC[C@H](Cc2ccccc2)c2ccccn2)ccc1O` (stereo in doubt), the IC50 rises from 54.9 µM to over 99.5 µM. The first is the more potent here.

`CCNC(=O)CN1CC2(CCN(c3cncc4ccccc34)C2=O)c2cc(Cl)ccc2S1(=O)=O` (configuration not stated) and `N#CC1(CS(=O)(=O)N2Cc3ccc(Cl)cc3C3(CCN(c4cncc5ccccc45)C3=O)C2)CCC1` (configuration not stated) are within 1.5-fold of each other in IC50: 0.275 µM for the first, 0.263 µM for the second.

`O=C(Cc1cc(Cl)cc(Nc2ccccc2Sc2ccccc2)c1)Nc1cncc2ccccc12` and `Cc1nc(Br)ccc1Nc1cc(Cl)cc(CC(=O)Nc2cncc3ccccc23)c1` are within 1.5-fold of each other in IC50: 2.47 µM for the first, 2.82 µM for the second.

`CC(C)S(=O)(=O)Nc1ccc2c(NC(=O)C3CN(S(=O)(=O)CC4(C#N)CC4)Cc4ccc(Cl)cc43)cncc2c1` (configuration not stated) and `CN(C)CCOc1ccc2cncc(NC(=O)C3CN(S(=O)(=O)CC4(C#N)CC4)Cc4ccc(Cl)cc43)c2c1` (configuration not stated) are within 1.5-fold of each other in IC50: 0.0898 µM for the first, 0.117 µM for the second.

First: COc1cc(CN2CCN(C(=O)CCl)CC2)c2ccccc2c1
Second: O=C(Cc1cccc(Cl)c1)Nc1cncc2ccc(OCCN3CCCC3)cc12
The IC50 of the first is 2.4-fold higher: 2.75 µM for the first, 1.13 µM for the second.

First: CS(=O)(=O)N1CCc2ccc(Cl)cc2C1C(=O)Nc1cncc2ccccc12 (configuration not stated)
Second: O=C(Cc1ccccc1Cl)Nc1cncc2ccccc12
The IC50 of the first is lower: 1.6 µM for the first, over 99.5 µM for the second.

`CCc1n[nH]c(=O)c(-c2nc(-c3c[nH]c4ncccc34)cs2)c1CC` and `Cc1ccc(NCc2nnc3n(C)c(=O)c4ccccc4n23)cc1C` cannot be ordered by IC50: over 99.5 µM for the first, over 99.5 µM for the second.

`CC(C)CCN1C(=O)C(=O)c2cc(Br)ccc21` and `Cn1cnnc1-c1cccc(NS(=O)(=O)c2c(Cl)nc3sccn23)c1` cannot be ordered by IC50: over 99.5 µM for the first, over 99.5 µM for the second.

Compared with `O=C(Cc1cc(Cl)cc(NC2CCN(Cc3ccccc3)CC2)c1)Nc1cncc2ccccc12`, `NC(=O)c1ccc(Cl)c(Nc2cc(Cl)cc(CC(=O)Nc3cncc4ccccc34)c2)c1` is 3.3-fold lower in IC50: 5.93 µM for the first, 1.79 µM for the second. The second is the more potent here.

Compared with `CC1(C(=O)Nc2cncc3ccc(F)cc23)CNS(=O)(=O)c2ccc(Cl)cc21` (configuration not stated), `O=C(Cc1cc(Cl)cc(Nc2ccc(F)cc2C(F)(F)F)c1)Nc1cncc2ccccc12` is 3.5-fold higher in IC50: 0.441 µM for the first, 1.56 µM for the second. The first is the more potent here.

Going from `CCC(=O)Nc1ccc(N(Cc2ccccc2)C(=O)Nn2nnc3ccccc32)cc1` to `CCC(=O)Nc1ccc(N(Cc2cscn2)C(=O)Cn2nnc3ccccc32)cc1`, the IC50 rises from 3.59 µM to 25 µM (7-fold). The first is the more potent here.

`O=C(Cc1cc(Cl)cc(Nc2ccc(F)c(F)c2Br)c1)Nc1cncc2ccccc12` and `COc1ccc(Nc2cc(Cl)cc(CC(=O)Nc3cncc4ccccc34)c2)c([N+](=O)[O-])c1` are within 1.5-fold of each other in IC50: 1.94 µM for the first, 2.12 µM for the second.

Going from `O=C(CCl)NC(CO)c1cccc(Cl)c1` (configuration not stated) to `Cc1nnn(NC(=O)Cc2cccc(Cl)c2)c1C`, the IC50 falls from over 99 µM to 14.2 µM.

Going from `O=C(Cn1cnc2ccccc21)Nc1cccc(Cl)c1` to `Cc1ccncc1NC(=O)Cc1cc(Cl)cc(OCc2nn(C(=O)OC(C)(C)C)c3ccccc23)c1`, the IC50 rises from 87.2 µM to over 99.5 µM.

`C=CC(=O)NCc1ccc(C(=O)NCc2cc(C)cc3c(C)c(C)[nH]c23)cc1` and `CC1(C)Cc2cccc(OCCNC(=O)c3cc(=O)[nH]c4cc(F)ccc34)c2O1` cannot be ordered by IC50: over 99.5 µM for the first, over 99.5 µM for the second.

First: CC(C(=O)Nc1cncnc1)c1ccccc1 (configuration not stated)
Second: Cc1cnc(Nc2cc(Cl)cc(CC(=O)Nc3cncc4ccccc34)c2)c([N+](=O)[O-])c1
The IC50 of the first is higher: over 99.5 µM for the first, 1.86 µM for the second.

Going from `N#CC1(CS(=O)(=O)N2Cc3ccc(Cl)cc3C3(CCN(c4cncc5ccccc45)C3=O)C2)CCCC1` (configuration not stated) to `NC(=O)C12COC(CNC(=O)CC3(C(=O)Nc4cncc5ccccc45)CCOc4ccc(Cl)cc43)(C1)C2` (configuration not stated), the IC50 rises from 0.244 µM to 9.05 µM (37-fold). The first is the more potent here.

`Cc1ccc2ncnc(NCc3ccc4nonc4c3)c2c1` and `Cn1ncc2c(=O)[nH]c(NNC(=O)c3cccn4nccc34)nc21` cannot be ordered by IC50: over 99.5 µM for the first, over 99.5 µM for the second.

Compared with `O=C(Cc1cc(Cl)cc(Nc2ccn([C@H]3C[C@H](O)[C@@H](CO)O3)c(=O)n2)c1)Nc1cncc2ccccc12` (stereo in doubt), `CN1CCN(C2CCN(c3cc(Cl)cc(CC(=O)Nc4cncc5ccccc45)c3)CC2)CC1` is 2.5-fold higher in IC50: 1.84 µM for the first, 4.56 µM for the second.

In the case of `COc1ccccc1OCCC(=O)Nc1cncc2ccccc12`, the IC50 is reported as 93.6 µM and > 99.5 µM.
In the case of `COc1ccc2cncc(NC(=O)C3CCOc4cc(F)c(Cl)cc43)c2c1` (configuration not stated), the IC50 is reported as 0.101 µM and 0.114 µM.
With `C=CC(=O)N(c1ccc(C2(C)CC2)cc1)C(C(=O)Nc1ccc(Br)cc1)c1cccnc1` (configuration not stated) the IC50 was 83.7 µM and 81.2 µM.
In the case of `C=CC(=O)N(c1ccc2ncsc2c1)C(C(=O)Nc1cccc(CC)c1)c1cccnc1` (configuration not stated), the IC50 is reported as 63.3 µM and 55 µM.
